Test results from patent EP0974593A1, “Artemisinin derivatives as antiparasitic agents” (The Hong Kong University of Science & Technology, priority 1998, dated 2000).
Converted amounts (≈) assume the structure as drawn. Like-named read-outs stand apart in the source and are kept apart here.

Key:
[1] = test system: Plasmodium Falciparum W2 strain (chloroquine resistant); assay: In vitro activity against Plasmodium falciparum, 3H-hypoxanthine incorporation assay, W2 strain; assay type: cell-based; conditions: W2, 66 h; for IC50 / IC90: Plasmodium falciparum
Excerpt: (§1) (a) InVitro Activity against Plasmodium Falciparum
(§2) Two parasite strains - W2 resistant to chloroquine, and D6 sensitive to chloroquine but […] were used. In Table I below, the best compounds should show no cross resistance between the two strains.
(§3) The assay relies on incorporation of radiolabelled hypoxanthine by the parasite and inhibition of incorporation is attributed to activity of known or candidate antimalarial drugs. For each assay, proven antimalarials such as chloroquine, mefloquine, quinine, artemisinin and pyrimethamine were used as controls. The incubation period was 66 hours, and the starting parasitemia was 0.2% with 1% hematocrit. The medium was an RPMI-1640 culture with no folate or p-aminobenzoic acid. Albumax rather than 10% normal heat inactivated human plasma was used as, with Albumax, less protein binding is observed, and compounds elicit slightly higher activities in this model. If a compound was submitted with no prior knowledge of activity, it was dissolved directly in dimethyl sulphoxide (DMSO), and diluted 400 fold with complete culture medium. […]. These dilutions were performed automatically by a Biomek 1000 Liquid Handling System in 96-well microtiter plates. The diluted drugs were then transferred to test plates, 200 µL of parasitized erythrocytes were added, and incubated at 37°C in a controlled environment of 5% CO2, 5% O2 and 90% N2. After […], 25 µL of ^3H-hypoxanthine was added, and the plates incubated for an additional 24 hours. After 66 hours, the plates were frozen at -70°C to lyse the red cells, and then thawed and harvested onto glass fiber filter mats in a 96-well harvester. The filter mats were then counted in a scintillation counter. For each drug, the concentration response profile was determined and 50% and 90% inhibitory concentrations (IC50, IC90 […]) were determined by a non-linear logistic dose response analysis program.
(§4) A prescreen format can be used wherein a 3-dilution assay may be used to determine activity at high medium or low concentrations. […]. These were performed in duplicate on a 96-well format plate with 14 test compounds and one known (standard) compound per plate. The system was automated with a Biomek diluter for mixing and diluting the drugs, and adding drugs and parasites to a test plate.
(§5) In the prescreen format, if the ANALYSIS FIELD (AF) has a "<", then the compound was "very active" and the IC values are most likely to be below the last dilution value (in nanograms/ml), which is listed next to AF. In most cases, these compounds were run again at lower starting concentration to determine the true IC value. If the AF has a ">", then the IC value is greater than the prescreen dilution value; thus "AF>250" means that the IC value is greater than 250 ng ml^-1 and no further screening is carried out. In such cases, values of 0.00 are entered for IC values.

[2] = test system: Plasmodium Falciparum D6 strain (chloroquine sensitive); assay: In vitro activity against Plasmodium falciparum, 3H-hypoxanthine incorporation assay, D6 strain; assay type: cell-based; conditions: D6, 66 h; for IC50 / IC90: Plasmodium falciparum; for IC50: read-out: In vitro activity: IC50; for IC90: read-out: In vitro activity: IC90
Excerpt: as §1, §2, §3, §4, §5

[3] = read-out: In vitro activity: IC50, W2 strain (chloroquine resistant), 66 hours incubation, Albumax medium
[4] = read-out: In vitro activity: IC90, W2 strain (chloroquine resistant), 66 hours incubation, Albumax medium
[5] = D6 strain (chloroquine sensitive, resistant to mefloquine), 66 hours incubation, Albumax medium

| SMILES | IC50 [1, 3] | IC90 [1, 4] | IC50 [2, 5] | IC90 [2, 5] | IC50 ([1]; read-out: In vitro activity: IC50) | IC90 ([1]; read-out: In vitro activity: IC90) | IC50 [2] | IC90 [2] | In vitro activity: (IC10) [1] | In vitro activity: (IC10) [2] |
| --- | --- | --- | --- | --- | --- | --- | --- | --- | --- | --- |
| C[C@@H]1CC[C@H]2[C@@H](C)C(=O)N[C@@H]3O[C@@]4(C)CC[C@@H]1[C@]32OO4 [Example 1, 11-azaartemisinin] | – | – | – | – | 1.73 ng/mL (≈ 6.15 nM) | 2.24 ng/mL (≈ 7.96 nM) | 2.6 ng/mL (≈ 9.24 nM) | 3.6 ng/mL (≈ 12.8 nM) | – | – |
| C[C@@H]1CC[C@H]2[C@@H](C)C(=O)N(Cc3ccc(F)cc3)[C@@H]3O[C@@]4(C)CC[C@@H]1[C@@]23OO4 [Example 4] | – | – | – | – | – | – | – | – | 0.31 ng/mL | 1.13 ng/mL |

Now from value to compound, other results behind:

| IC50 [1, 3] | IC90 [1, 4] | IC50 [2, 5] | IC90 [2, 5] | SMILES | IC50 ([1]; read-out: In vitro activity: IC50) | IC90 ([1]; read-out: In vitro activity: IC90) | IC50 [2] | IC90 [2] | In vitro activity: (IC10) [1] | In vitro activity: (IC10) [2] |
| --- | --- | --- | --- | --- | --- | --- | --- | --- | --- | --- |
| 0.58 ng/mL (≈ 1.49 nM) | 0.95 ng/mL (≈ 2.44 nM) | 0.79 ng/mL (≈ 2.03 nM) | 1.26 ng/mL (≈ 3.24 nM) | C[C@@H]1CC[C@H]2[C@@H](C)C(=O)N(Cc3cccc(F)c3)[C@@H]3O[C@@]4(C)CC[C@@H]1[C@@]23OO4 [Example 5] | – | – | – | – | – | – |
| 0.775 ng/mL (≈ 1.99 nM) | 0.975 ng/mL (≈ 2.5 nM) | 0.64 ng/mL (≈ 1.64 nM) | 0.99 ng/mL (≈ 2.54 nM) | C[C@@H]1CC[C@H]2[C@@H](C)C(=O)N(Cc3ccccc3F)[C@@H]3O[C@@]4(C)CC[C@@H]1[C@@]23OO4 [Example 2, 11-aza-N-(2-fluorobenzyl)artemisinin] | – | – | – | – | – | – |
| 3.8 ng/mL (≈ 10.2 nM) | 4.68 ng/mL (≈ 12.6 nM) | 3.62 ng/mL (≈ 9.74 nM) | 6.68 ng/mL (≈ 18 nM) | C[C@@H]1CC[C@H]2[C@@H](C)C(=O)N(Cc3ccccc3)[C@@H]3O[C@@]4(C)CC[C@@H]1[C@@]23OO4 [Example 6] | – | – | – | – | – | – |
